In PubChem BioAssay AID1963826 (Molecular Pharmacology Branch, DTP, NCI, 2024):

Tested on: 926638-142-R-J1-PDC complex spheroid viability
Test: Anticancer human tumor 926638-142-R-J1-PDC patient-derived endometrial carcinoma cell line growth inhibition [POLQ]
Settings: for IC50: curve of first compound; for viability, T/C: stronger effect = lower value
Outline: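 Complex spheroid viability model combining PDC tumour cells with endothelial (HUVEC) and MSC stromal cells. Novobiocin, ART-558 or RP6685 were tested singly and in combination with standard and investigational anticancer drugs. Each was titrated in half-log steps from near clinical Cmax, or from 10 microM where Cmax was unknown.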

[1] = second compound 0.0316 µM, first compound 0.0316 µM
[2] = second compound 0.0316 µM, first compound 0.1 µM
[3] = second compound 0.0316 µM, first compound 0.316 µM
[4] = second compound 0.0316 µM, first compound 1 µM
[5] = second compound 0.0316 µM, first compound 3.16 µM
[6] = second compound 0.0316 µM, first compound 10 µM
[7] = second compound 0.1 µM, first compound 0.0316 µM
[8] = second compound 0.1 µM, first compound 0.1 µM
[9] = second compound 0.1 µM, first compound 0.316 µM
[10] = second compound 0.1 µM, first compound 1 µM
[11] = second compound 0.1 µM, first compound 3.16 µM
[12] = second compound 0.1 µM, first compound 10 µM
[13] = second compound 0.316 µM, first compound 0.0316 µM
[14] = second compound 0.316 µM, first compound 0.1 µM
[15] = second compound 0.316 µM, first compound 0.316 µM
[16] = second compound 0.316 µM, first compound 1 µM
[17] = second compound 0.316 µM, first compound 3.16 µM
[18] = second compound 0.316 µM, first compound 10 µM
[19] = second compound 1 µM, first compound 0.0316 µM
[20] = second compound 1 µM, first compound 0.1 µM
[21] = second compound 1 µM, first compound 0.316 µM
[22] = second compound 1 µM, first compound 1 µM
[23] = second compound 1 µM, first compound 3.16 µM
[24] = second compound 1 µM, first compound 10 µM
[25] = second compound 3.16 µM, first compound 0.0316 µM
[26] = second compound 3.16 µM, first compound 0.1 µM
[27] = second compound 3.16 µM, first compound 0.316 µM
[28] = second compound 3.16 µM, first compound 1 µM
[29] = second compound 3.16 µM, first compound 3.16 µM
[30] = second compound 3.16 µM, first compound 10 µM
[31] = second compound 10 µM, first compound 0.0316 µM
[32] = second compound 10 µM, first compound 0.1 µM
[33] = second compound 10 µM, first compound 0.316 µM
[34] = second compound 10 µM, first compound 1 µM
[35] = second compound 10 µM, first compound 3.16 µM
[36] = second compound 10 µM, first compound 10 µM
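Note: spheroids exposed to drugs for one week before readout.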
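Throughout, for viability, T/C: percent viability relative to DMSO vehicle control wells set as 100%.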

CNCc1ccc(-c2[nH]c3cc(F)cc4c3c2CCNC4=O)cc1 + Nc1ccc(C#CCN(C(=O)Cc2ncc(C(F)(F)F)cc2C(F)(F)F)c2ccc(F)cc2)nn1
IC50 (second compound 0.0316 µM): > 10 µM
IC50 (second compound 0.1 µM): > 10 µM
IC50 (second compound 0.316 µM): > 10 µM
IC50 (second compound 1 µM): > 10 µM
IC50 (second compound 3.16 µM): > 10 µM
IC50 (second compound 10 µM): > 10 µM
viability, T/C [1]: 94.5%
viability, T/C [2]: 87.2%
viability, T/C [3]: 91.2%
viability, T/C [4]: 83.1%
viability, T/C [5]: 86.2%
viability, T/C [6]: 71.3%
viability, T/C [7]: 96.7%
viability, T/C [8]: 115%
viability, T/C [9]: 90.7%
viability, T/C [10]: 87.8%
viability, T/C [11]: 101%
viability, T/C [12]: 71.3%
viability, T/C [13]: 101%
viability, T/C [14]: 108%
viability, T/C [15]: 95%
viability, T/C [16]: 82.6%
viability, T/C [17]: 115%
viability, T/C [18]: 73.7%
viability, T/C [19]: 103%
viability, T/C [20]: 90.2%
viability, T/C [21]: 91.2%
viability, T/C [22]: 79.5%
viability, T/C [23]: 95.3%
viability, T/C [24]: 84.1%
viability, T/C [25]: 102%
viability, T/C [26]: 89.5%
viability, T/C [27]: 101%
viability, T/C [28]: 80.1%
viability, T/C [29]: 93%
viability, T/C [30]: 71.1%
viability, T/C [31]: 90%
viability, T/C [32]: 81.4%
viability, T/C [33]: 93%
viability, T/C [34]: 95.1%
viability, T/C [35]: 98.7%
viability, T/C [36]: 73.1%

Cn1ncnc1[C@H]1c2n[nH]c(=O)c3cc(F)cc(c23)N[C@@H]1c1ccc(F)cc1 + Nc1ccc(C#CCN(C(=O)Cc2ncc(C(F)(F)F)cc2C(F)(F)F)c2ccc(F)cc2)nn1
IC50 (second compound 0.0316 µM): > 0.1 µM
IC50 (second compound 0.1 µM): > 0.1 µM
IC50 (second compound 0.316 µM): > 0.1 µM
IC50 (second compound 1 µM): > 0.1 µM
IC50 (second compound 3.16 µM): > 0.1 µM
IC50 (second compound 10 µM): > 0.1 µM
viability, T/C (second compound 0.0316 µM, first compound 0.000316 µM): 117%
viability, T/C (second compound 0.0316 µM, first compound 0.001 µM): 89.7%
viability, T/C (second compound 0.0316 µM, first compound 0.00316 µM): 99.6%
viability, T/C (second compound 0.0316 µM, first compound 0.01 µM): 75.7%
viability, T/C [1]: 69.8%
viability, T/C [2]: 74.5%
viability, T/C (second compound 0.1 µM, first compound 0.000316 µM): 123%
viability, T/C (second compound 0.1 µM, first compound 0.001 µM): 90.1%
viability, T/C (second compound 0.1 µM, first compound 0.00316 µM): 101%
viability, T/C (second compound 0.1 µM, first compound 0.01 µM): 78%
viability, T/C [7]: 79.8%
viability, T/C [8]: 68.5%
viability, T/C (second compound 0.316 µM, first compound 0.000316 µM): 91.9%
viability, T/C (second compound 0.316 µM, first compound 0.001 µM): 98.5%
viability, T/C (second compound 0.316 µM, first compound 0.00316 µM): 83.6%
viability, T/C (second compound 0.316 µM, first compound 0.01 µM): 84%
viability, T/C [13]: 84.9%
viability, T/C [14]: 66.2%
viability, T/C (second compound 1 µM, first compound 0.000316 µM): 108%
viability, T/C (second compound 1 µM, first compound 0.001 µM): 96.7%
viability, T/C (second compound 1 µM, first compound 0.00316 µM): 75.6%
viability, T/C (second compound 1 µM, first compound 0.01 µM): 83.2%
viability, T/C [19]: 70.4%
viability, T/C [20]: 80.5%
viability, T/C (second compound 3.16 µM, first compound 0.000316 µM): 82.3%
viability, T/C (second compound 3.16 µM, first compound 0.001 µM): 96.3%
viability, T/C (second compound 3.16 µM, first compound 0.00316 µM): 92.2%
viability, T/C (second compound 3.16 µM, first compound 0.01 µM): 92.4%
viability, T/C [25]: 82.9%
viability, T/C [26]: 71.2%
viability, T/C (second compound 10 µM, first compound 0.000316 µM): 94.3%
viability, T/C (second compound 10 µM, first compound 0.001 µM): 99.2%
viability, T/C (second compound 10 µM, first compound 0.00316 µM): 78.7%
viability, T/C (second compound 10 µM, first compound 0.01 µM): 74%
viability, T/C [31]: 81.9%
viability, T/C [32]: 75.7%

O=C(c1cc(Cc2n[nH]c(=O)c3ccccc23)ccc1F)N1CCN(C(=O)C2CC2)CC1 + Nc1ccc(C#CCN(C(=O)Cc2ncc(C(F)(F)F)cc2C(F)(F)F)c2ccc(F)cc2)nn1
IC50 (second compound 0.0316 µM): > 10 µM
IC50 (second compound 0.1 µM): > 10 µM
IC50 (second compound 0.316 µM): > 10 µM
IC50 (second compound 1 µM): > 10 µM
IC50 (second compound 3.16 µM): > 10 µM
IC50 (second compound 10 µM): > 10 µM
viability, T/C [1]: 82.5%
viability, T/C [2]: 96.2%
viability, T/C [3]: 84.5%
viability, T/C [4]: 94.9%
viability, T/C [5]: 81.9%
viability, T/C [6]: 80.4%
viability, T/C [7]: 101%
viability, T/C [8]: 110%
viability, T/C [9]: 86.5%
viability, T/C [10]: 88.2%
viability, T/C [11]: 80.7%
viability, T/C [12]: 73.8%
viability, T/C [13]: 100%
viability, T/C [14]: 93.8%
viability, T/C [15]: 89.7%
viability, T/C [16]: 99%
viability, T/C [17]: 82.8%
viability, T/C [18]: 77.8%
viability, T/C [19]: 97.5%
viability, T/C [20]: 90.6%
viability, T/C [21]: 85%
viability, T/C [22]: 83.2%
viability, T/C [23]: 82%
viability, T/C [24]: 69.3%
viability, T/C [25]: 86.3%
viability, T/C [26]: 89.9%
viability, T/C [27]: 91.4%
viability, T/C [28]: 87.6%
viability, T/C [29]: 98.3%
viability, T/C [30]: 81.6%
viability, T/C [31]: 87.6%
viability, T/C [32]: 85.8%
viability, T/C [33]: 80.1%
viability, T/C [34]: 73.7%
viability, T/C [35]: 81.5%
viability, T/C [36]: 66.1%
